Literature values, collected in patent US20070021351A1, “Liver/plasma concentration ratio for dosing hepatitis C virus protease inhibitor” (Schering Corporation, priority 2005, published 2007).

Details: in vivo; cited from earlier work

| Structure (SMILES) | volume of distribution |
| --- | --- |
| C[C@H]1O[C@@H](O[C@H]2[C@@H](O)C[C@H](O[C@H]3[C@@H](O)C[C@H](O[C@H]4CC[C@@]5(C)[C@H](CC[C@@H]6[C@@H]5C[C@@H](O)[C@]5(C)[C@@H](C7=CC(=O)OC7)CC[C@]65O)C4)O[C@@H]3C)O[C@@H]2C)C[C@H](O)[C@@H]1O [digoxin, reference compound] | ~450 L |
| CCO [ethanol, Ethanol] | about 35 L |
